Assay [1] has as its system sigma receptor. As to conditions: de Costa et al, J. Med. Chem. 1989 and further structure activity studies; cited from earlier work.
Assay [2] concerns the target T1, sigma receptor (Cavia porcellus, UniProt Q60492).
T1 construct: crude synaptosomal (P2) membrane fraction of guinea pig brain; tissue Pel-Freeze (frozen guinea pig brains); host or cells: guinea pig brain minus cerebella, crude P2 membranes
In words: Radioreceptor assay: displacement of [3H](+)-pentazocine from guinea pig brain membranes. In kind it is binding. The note with it: [3H](+)-pentazocine 3 nM, guinea pig brain crude P2 membranes, pH 8.0, 120 min, 25° C.; average of 2-4 experiments; from IC50 by Cheng-Prusoff; read-out: Ki ([3H] (+) -Pent). (Loss of bound radioactivity is the signal in a displacement assay; it reports binding, not function.)

For assay [3], the system named is NMDA receptor. As to conditions: C. Carter et al, J. Pharm Exp. Ther., 1988; cited from earlier work.

pKi: −log10 of the molar value.

T1 sequence (Q60492 whole entry): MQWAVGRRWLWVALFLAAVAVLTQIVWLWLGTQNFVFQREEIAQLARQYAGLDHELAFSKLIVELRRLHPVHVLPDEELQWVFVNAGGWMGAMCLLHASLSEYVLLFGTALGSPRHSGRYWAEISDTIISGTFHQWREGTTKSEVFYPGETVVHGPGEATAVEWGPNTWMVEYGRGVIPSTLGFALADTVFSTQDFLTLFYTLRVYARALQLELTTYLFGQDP

On to `CN(CCc1ccc(Cl)c(Cl)c1)[C@@H]1CCCC[C@@H]1N1CCCC1` (single isomer, unassigned) [(+)-cis-N-[3,4-dichlorophenylethyl]-N-methyl-2-(1-pyrrolidinyl)-cyclohexylamine], for which the sigma receptor ligand entry in assay [1] was “extremely potent and selective ligands for the sigma receptor”.
As to `CN(CCc1ccc(Cl)c(Cl)c1)[C@@H]1CCCC[C@@H]1N1CCCC1` (single isomer, unassigned) [(-)-cis-N-[3,4-dichlorophenylethyl]-N-methyl-2-(1-pyrrolidinyl)-cyclohexylamine], the sigma receptor ligand result in assay [1] was “extremely potent and selective ligands for the sigma receptor”.
As for `Clc1ccc(CCN2CCN3CCC2CC3)cc1Cl` [Compound of Ex. 5, 4-[2-(3,4-Dichlorophenyl)ethyl]-1,4-diazabicyclo[2.2.3]nonane], in assay [2], the negative logarithm of the Ki (pKi) (in general, the Ki on a negative log10 scale, so that one unit is a factor of ten) is 6.90.
Turning to `CC(C(O)c1ccc(O)cc1)N1CCC(Cc2ccccc2)CC1` (centres unmarked) [ifenprodil], the NMDA receptor antagonism result in assay [3] is on record as “non-competitive NMDA receptor antagonists”.
“1-(4-chlorophenyl)-2-[1-(4-fluorophenyl)-piperidinyl]ethanol”: the NMDA receptor antagonism result in assay [3] is on record as “non-competitive NMDA receptor antagonists”.

The record behind these values is US5679673A (priority 1994, dated 1997).
